Results: PMC7146544, “Dual Plasmepsin-Targeting Antimalarial Agents Disrupt Multiple Stages of the Malaria Parasite Life Cycle” (Cell Host & Microbe, 2020)
Like-named read-outs stand apart in the source and are kept apart here.

Experiments:
[1] = Bioanalytical determination of WM382 in mouse blood by LC-MS/MS; format: in vivo; conditions: SCID (huSCID), whole blood, po, huSCID mice
Protocol: Serial samples of peripheral blood (25 μL) were taken from the mice of the efficacy experiment in the murine P. falciparum SCID model by tail puncture at 1, 2, 4, 6 and 24 h post first and last drug administration. The samples were immediately lysed by mixing with 25 μL of water, immediately frozen on dry ice and stored at −80°C until bioanalysis (carried out at SBQ, Reinach, Switzerland). The compounds were extracted from 10 μL of each lysate with 50 μL acetonitrile containing the internal standards (reserpine at 100 ng/mL). After a centrifugation step at 50000 g for 10 min, an aliquot of 50 μL of the supernatant was transferred to an autosampler vial and analyzed. The compounds were quantified by LC-MS/MS in the selected reaction monitoring mode using HESI ionization in positive ion mode, using a TSQ Quantum Access Mass spectrometer (Thermo Fisher Scientific, San Jose, CA, USA). The compound concentration versus time data was determined.

[2] = tested on: P. falciparum; assay: P. falciparum asexual blood-stage growth inhibition (LDH or SYBR Green flow cytometry); format: cell-based, Plasmodium falciparum; conditions: Plasmodium falciparum, 3D7, 3D7 parasite line, asexual blood stage; read-out: EC50, inhibition of P. falciparum growth
Protocol: For High Throughput Screening (HTS) of compounds we used the lactate dehydrogenase (LDH) assay to detect parasitemia ([Makler et al., 1993], [Oduola et al., 1997]) formatted in a 384 well assay using an Echo555 (Labcyte). The P. falciparum assay was conducted with minor modifications ([Gamo et al., 2010]). Briefly, an inoculum of parasitized red blood cells at 0.7% parasitemia and 2% hematocrit in RPMI-1640, 5% AlbuMAX, 2% d-sucrose, 0.3% glutamine and 150 μM hypoxanthine was used for the assay. Assay plates (Greiner #781098, 384 well, white, tissue culture treated) were prepared by dispensing 1 μl of compound from master plates at 20 μM (10% DMSO stock) into 9ul pre-dispensed growth media in each well. The parasite inoculum (30 μl) was dispensed into plates containing compounds using a Multidrop Combi dispenser (Thermo Scientific). Final assay volume was 40 μl and final compound concentration was 500 nM. The positive growth control was 0.25% DMSO and the negative growth control was 100 nM chloroquine. Plates were incubated at 37 °C for 72 h in an atmosphere of […]. Following 72 h growth, plates were sealed with parafilm and frozen at −80 °C overnight. Plates were thawed at room temperature for at least 4 h prior to LDH activity being measured. 45 μl of fresh LDH reaction mix (174 mM sodium l-lactate, 214 μM 3-acetyl pyridine adenine dinucleotide (APAD), 270 μM Nitro Blue tetrazolium chloride (NBT), 4.35 U ml-1 diaphorase, 0.7% Tween 20, 100 mM Tris-HCl pH 7.5) was dispensed into each well using a Multidrop Combi dispenser. Plates were shaken to ensure mixing and absorbance at 650 nm was measured in an EnVision (PerkinElmer) plate reader after 30 min of incubation at room temperature. Data were normalized to percent growth inhibition using positive and negative controls and analyzed using Dotmatics 5.3 and Spotfire 7.11.1 (Tibco) software.
All wells were backfilled with DMSO to 45 nL such that this remained constant (0.1% DMSO). The positive growth control was 0.1% DMSO and the negative growth control was 100 nM chloroquine. Parasite inoculum (40 μl) was dispensed into plates containing compounds as described above. All other culture and lactate dehydrogenase (LDH) reaction methods are as described previously ([Makler et al., 1993], [Oduola et al., 1997]).
After 72 h incubation at 37°C each well was fixed at room temperature for 30 min with 50 μL of 0.25% glutaraldehyde (ProSciTech) diluted in PBS. Following centrifugation at 1200 rpm for 1 min, supernatants were discarded and parasites were stained with 50 μL of 5X SYBR Green (Invitrogen) diluted in PBS. 50,000 cells were counted by flow cytometry using a Cell Lab Quanta SC – MPL Flow Cytometer (Beckman Coulter) ([Bacon et al., 2007]). Growth was expressed as a percentage of the parasitemia obtained using a vehicle control. All samples were tested in triplicate. EC50 values were determined using GraphPad Prism.

[3] = tested on: P. berghei; assay: Merosome transfer from treated HepG2 cultures to mice; format: in vivo, Plasmodium berghei; conditions: HepG2 cultures treated with 1 nM, washed
Protocol: To infect cells, freshly isolated PbmCherryLuci salivary gland sporozoites were resuspended in complete medium and 10^4 sporozoites added to each well (MOI 0.34) before spinoculation at 500 x g for 3 min. Sporozoites were allowed to infect cells for 3 h before washing with complete medium. […] The compound containing medium was changed the next morning before 48 hpi to prevent removal of detached cells and merosomes in the supernatant at later time points ([Sturm et al., 2006]). To measure inhibition of parasitised cell detachment in the treated cultures, each well was imaged for mCherry at 20x magnification using an Opera Phenix High Content Screening System (PerkinElmer) at 48 hpi (live cell microscopy) and again at 65 hpi following fixation with 4% formalin in PBS, and the number of mCherry^+ parasites counted using the Columbus Image Data Storage and Analysis System (PerkinElmer). Cell detachment was calculated as the percent of parasites lost from the monolayer between 48 – 65 hpi. The culture supernatant containing merosomes and detached parasitised cells from each well was collected at 65 hpi, washed once in complete media by centrifugation at 500 x g for 3 min, then i.v. injected into individual male Swiss mice. Daily Giemsa stained thin blood smears were monitored for patent blood infection as described previously.

## CCC1(CC)CC(=O)N([C@@H]2CCOc3ccc(C(=O)N[C@H]4CC(C)(C)Oc5ccccc54)cc32)C(=N)N1 [WM382]
[1]; 1 mg/kg, oral daily dose 1 mg/kg, read-out: AUC dose 1
  AUC: 0.06 ± 0.03 µM·h
[1]; 1 mg/kg, oral daily dose 1 mg/kg, read-out: AUC dose 4
  AUC: 0.1 ± 0.04 µM·h
[1]; 3 mg/kg, oral daily dose 3 mg/kg, read-out: AUC dose 1
  AUC: 0.5 ± 0.18 µM·h
[1]; 3 mg/kg, oral daily dose 3 mg/kg, read-out: AUC dose 4
  AUC: 0.37 ± 0.21 µM·h
[1]; 10 mg/kg, oral daily dose 10 mg/kg, read-out: AUC dose 1
  AUC: 2.61 ± 1 µM·h
[1]; 10 mg/kg, oral daily dose 10 mg/kg, read-out: AUC dose 4
  AUC: 2.62 ± 1.03 µM·h
[1]; 30 mg/kg, oral daily dose 30 mg/kg, read-out: AUC dose 1
  AUC: 7.04 ± 1.53 µM·h
[1]; 30 mg/kg, oral daily dose 30 mg/kg, read-out: AUC dose 4
  AUC: 5.17 ± 1.22 µM·h
[2]
  EC50: 0.6 nM
[3]
  blood infection of naive mice after i.v. injection of 65 hpi supernatants: Blood infection was initiated in mice
